Data published in patent US20260262643A1, “HERBICIDAL BENZOXAZINES” (FMC CORPORATION, priority 2022, published 2026).

What was measured:
[1] = system: oat, wild; assay: Test C preemergence; format: in vivo, Avena fatua; settings: preemergence, 0 to 100 scale (0 no effect, 100 complete control)
Outline: (§1)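 Seeds sown in loam soil–sand blend received a directed preemergence soil spray of test chemical in non-phytotoxic solvent with surfactant; postemergence plants (2–10 cm, one- to two-leaf stage) were sprayed with the same formulation. Greenhouse-held 10 days, then visually rated for injury versus untreated controls, 0 (no effect) to 100 (complete control).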

[2] = system: soybean; assay: Test C preemergence; format: in vivo, Glycine max; settings: preemergence, 0 to 100 scale (0 no effect, 100 complete control)
Outline: as §1

[3] = system: corn; assay: Test C postemergence; format: in vivo, Zea mays; settings: 10 days, 0 to 100 scale (0 no effect, 100 complete control)
Outline: as §1

[4] = system: rice; assay: Test D flooded paddy test; format: in vivo, Oryza sativa; settings: 250 g ai/ha, applied to paddy water, visual rating after 13 to 14 days, scale 0 to 100 (0 no effect, 100 complete control)
Outline: (§2)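 Plants at the 2-leaf stage were grown in pots flooded to 3 cm, and compound was applied directly into the paddy water, with depth kept throughout. After 13–14 days in a greenhouse, injury was rated visually against untreated controls on a 0–100 scale (100 = complete control); a dash means not tested.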

[5] = system: pigweed, palmer; assay: Test C postemergence; format: in vivo, Amaranthus palmeri; settings: 10 days, 0 to 100 scale (0 no effect, 100 complete control)
Outline: as §1

[6] = system: oat, wild; assay: Test C postemergence; format: in vivo, Avena fatua; settings: 10 days, 0 to 100 scale (0 no effect, 100 complete control)
Outline: as §1

[7] = system: wheat; assay: Test C preemergence; format: in vivo, Triticum aestivum; settings: preemergence, 0 to 100 scale (0 no effect, 100 complete control)
Outline: as §1

[8] = system: blackgrass; assay: Test C preemergence; format: in vivo, Alopecurus myosuroides; settings: preemergence, 0 to 100 scale (0 no effect, 100 complete control)
Outline: as §1

[9] = system: blackgrass; assay: Test C postemergence; format: in vivo, Alopecurus myosuroides; settings: 10 days, 0 to 100 scale (0 no effect, 100 complete control)
Outline: as §1

[10] = system: barnyardgrass; assay: Test D flooded paddy test; format: in vivo, Echinochloa crus-galli; settings: 250 g ai/ha, applied to paddy water, visual rating after 13 to 14 days, scale 0 to 100 (0 no effect, 100 complete control)
Outline: as §2

[11] = system: ragweed; assay: Test C preemergence; format: in vivo, Ambrosia artemisiifolia; settings: preemergence, 0 to 100 scale (0 no effect, 100 complete control)
Outline: as §1

[12] = system: soybean; assay: Test C postemergence; format: in vivo, Glycine max; settings: 10 days, 0 to 100 scale (0 no effect, 100 complete control)
Outline: as §1

[13] = system: kochia; assay: Test C postemergence; format: in vivo, Bassia scoparia; settings: 10 days, 0 to 100 scale (0 no effect, 100 complete control)
Outline: as §1

[14] = system: barnyardgrass; assay: Test C preemergence; format: in vivo, Echinochloa crusgalli; settings: preemergence, 0 to 100 scale (0 no effect, 100 complete control)
Outline: as §1

[15] = system: barnyardgrass; assay: Test C postemergence; format: in vivo, Echinochloa crusgalli; settings: 10 days, 0 to 100 scale (0 no effect, 100 complete control)
Outline: as §1

[16] = system: sedge, umbrella; assay: Test D flooded paddy test; format: in vivo, Cyperus difformis; settings: 250 g ai/ha, applied to paddy water, visual rating after 13 to 14 days, scale 0 to 100 (0 no effect, 100 complete control)
Outline: as §2

[17] = system: ragweed; assay: Test C postemergence; format: in vivo, Ambrosia artemisiifolia; settings: 10 days, 0 to 100 scale (0 no effect, 100 complete control)
Outline: as §1

[18] = system: ryegrass, Italian; assay: Test C preemergence; format: in vivo, Lolium multiflorum; settings: preemergence, 0 to 100 scale (0 no effect, 100 complete control)
Outline: as §1

[19] = system: green foxtail; assay: Test C postemergence; format: in vivo, Setaria viridis; settings: 10 days, 0 to 100 scale (0 no effect, 100 complete control)
Outline: as §1

[20] = system: pigweed, palmer; assay: Test C preemergence; format: in vivo, Amaranthus palmeri; settings: preemergence, 0 to 100 scale (0 no effect, 100 complete control)
Outline: as §1

[21] = system: wheat; assay: Test C postemergence; format: in vivo, Triticum aestivum; settings: 10 days, 0 to 100 scale (0 no effect, 100 complete control)
Outline: as §1

[22] = system: ducksalad; assay: Test D flooded paddy test; format: in vivo, Heteranthera limosa; settings: 250 g ai/ha, applied to paddy water, visual rating after 13 to 14 days, scale 0 to 100 (0 no effect, 100 complete control)
Outline: as §2

[23] = system: ryegrass, Italian; assay: Test C postemergence; format: in vivo, Lolium multiflorum; settings: 10 days, 0 to 100 scale (0 no effect, 100 complete control)
Outline: as §1

[24] = system: kochia; assay: Test C preemergence; format: in vivo, Bassia scoparia; settings: preemergence, 0 to 100 scale (0 no effect, 100 complete control)
Outline: as §1

[25] = system: corn; assay: Test C preemergence; format: in vivo, Zea mays; settings: preemergence, 0 to 100 scale (0 no effect, 100 complete control)
Outline: as §1

[26] = system: galium; assay: Test C postemergence; format: in vivo, Galium aparine; settings: 10 days, 0 to 100 scale (0 no effect, 100 complete control)
Outline: as §1

[27] = system: green foxtail; assay: Test C preemergence; format: in vivo, Setaria viridis; settings: preemergence, 0 to 100 scale (0 no effect, 100 complete control)
Outline: as §1

[28] = system: horseweed; assay: Test C postemergence; format: in vivo, Erigeron canadensis; settings: 10 days, 0 to 100 scale (0 no effect, 100 complete control)
Outline: as §1

For `Cc1cccc2c1O[C@@H](C)CN2C(=O)c1cccc(-n2cnc(N)n2)c1` [Compound 308], the “Oat, Wild plant response rating” value ([1]; 500 g ai/ha) was 70, the “Oat, Wild plant response rating” value ([1]; Test C, 125 g ai/ha) was 0 and the “Soybean plant response rating” value ([2]; 500 g ai/ha) was 0. For the same molecule, the “Soybean plant response rating” value ([2]; Test C, 125 g ai/ha) was 0, the “Plant response rating, Corn” value ([3]; 500 g ai/ha, postemergence) was 40 and the “Plant response rating, Corn” value ([3]; Postemergence, 125 g ai/ha) was 10. For the same molecule, the “Plant response rating, Rice (Flood)” value [4] was 0, the “Plant response rating, Pigweed, Palmer” value ([5]; 500 g ai/ha, postemergence) was 50 and the “Plant response rating, Pigweed, Palmer” value ([5]; Postemergence, 125 g ai/ha) was 10. For the same molecule, the “Plant response rating, Oat, Wild” value ([6]; 500 g ai/ha, postemergence) was 0, the “Plant response rating, Oat, Wild” value ([6]; Postemergence, 125 g ai/ha) was 0 and the “Wheat plant response rating” value ([7]; 500 g ai/ha) was 30. The “Wheat plant response rating” value ([7]; Test C, 125 g ai/ha) was 0, the “Blackgrass plant response rating” value ([8]; 500 g ai/ha) was 30 and the “Blackgrass plant response rating” value ([8]; Test C, 125 g ai/ha) was 0. The “Plant response rating, Blackgrass” value ([9]; 500 g ai/ha, postemergence) was 60, the “Plant response rating, Blackgrass” value ([9]; Postemergence, 125 g ai/ha) was 10 and the “Plant response rating, Barnyardgrass (Flood)” value [10] was 0. The “Ragweed plant response rating” value ([11]; 500 g ai/ha) was 20, the “Ragweed plant response rating” value ([11]; Test C, 125 g ai/ha) was 30 and the “Plant response rating, Soybean” value ([12]; 500 g ai/ha, postemergence) was 100. For the same molecule, the “Plant response rating, Soybean” value ([12]; Postemergence, 125 g ai/ha) was 90, the “Plant response rating, Kochia” value ([13]; 500 g ai/ha, postemergence) was 20 and the “Plant response rating, Kochia” value ([13]; Postemergence, 125 g ai/ha) was 20. The “Barnyardgrass plant response rating” value ([14]; 500 g ai/ha) was 50, the “Barnyardgrass plant response rating” value ([14]; Test C, 125 g ai/ha) was 0 and the “Plant response rating, Barnyardgrass” value ([15]; 500 g ai/ha, postemergence) was 30. For the same molecule, the “Plant response rating, Barnyardgrass” value ([15]; Postemergence, 125 g ai/ha) was 10, the “Plant response rating, Sedge, Umbrella (Flood)” value [16] was 0 and the “Plant response rating, Ragweed” value ([17]; 500 g ai/ha, postemergence) was 30. The “Plant response rating, Ragweed” value ([17]; Postemergence, 125 g ai/ha) was 0, the “Ryegrass, Italian plant response rating” value ([18]; 500 g ai/ha) was 70 and the “Ryegrass, Italian plant response rating” value ([18]; Test C, 125 g ai/ha) was 30. The “Plant response rating, Foxtail, Green” value ([19]; 500 g ai/ha, postemergence) was 50, the “Plant response rating, Foxtail, Green” value ([19]; Postemergence, 125 g ai/ha) was 20 and the “Pigweed, Palmer plant response rating” value ([20]; 500 g ai/ha) was 80. For the same molecule, the “Pigweed, Palmer plant response rating” value ([20]; Test C, 125 g ai/ha) was 20, the “Plant response rating, Wheat” value ([21]; 500 g ai/ha, postemergence) was 20 and the “Plant response rating, Wheat” value ([21]; Postemergence, 125 g ai/ha) was 10. The “Plant response rating, Ducksalad (Flood)” value [22] was 0, the “Plant response rating, Ryegrass, Italian” value ([23]; 500 g ai/ha, postemergence) was 20 and the “Plant response rating, Ryegrass, Italian” value ([23]; Postemergence, 125 g ai/ha) was 0. For the same molecule, the “Kochia plant response rating” value ([24]; 500 g ai/ha) was 20, the “Kochia plant response rating” value ([24]; Test C, 125 g ai/ha) was 0 and the “Corn plant response rating” value ([25]; 500 g ai/ha) was 0. For the same molecule, the “Corn plant response rating” value ([25]; Test C, 125 g ai/ha) was 0, the “Plant response rating, Galium” value ([26]; 500 g ai/ha, postemergence) was 80 and the “Plant response rating, Galium” value ([26]; Postemergence, 125 g ai/ha) was 70. For the same molecule, the “Foxtail, Green plant response rating” value ([27]; 500 g ai/ha) was 90, the “Foxtail, Green plant response rating” value ([27]; Test C, 125 g ai/ha) was 30 and the “Plant response rating, Horseweed” value ([28]; 500 g ai/ha, postemergence) was 0. For the same molecule, the “Plant response rating, Horseweed” value ([28]; Postemergence, 125 g ai/ha) was 20.
